Experimental data reported in patent US12281122B1, “PI3K inhibitors” (Cogent Biosciences, Inc., priority 2023, dated 2025).

Legend:
[1] = system: T47D (PI3Kα-H1047R) cell line; assay: HTRF phospho-AKT(S473) cell assay in T47D cells; type: cell-based, human; conditions: Homo sapiens; T47D (PI3Kα-H1047R) cells, HTRF phospho-AKT(S473), 2 hours compound incubation
Method in brief: (§1)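 Cells plated overnight (T47D in RPMI/10% FBS/0.2 units/mL insulin; SKBR3 in McCoy's 5A/10% FBS), then given 12-point 1:3 compound series (top 5 μM T47D, 10 μM SKBR3; ≤0.5% DMSO) for 2 h at 37° C. SKBR3 stimulated with 70 ng/ml PDGF-BB for final 15 min. Lysate pAKT(S473) by HTRF; IC50 calculated.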

[2] = system: SKBR3 (PI3Kα-Wild Type) cell line; assay: HTRF phospho-AKT(S473) cell assay in SKBR3 cells; type: cell-based, human; conditions: Homo sapiens, SK-BR-3; SKBR3 (PI3Kα-Wild Type) cells, HTRF phospho-AKT(S473), 2 hours compound incubation, PDGF-BB stimulated
Method in brief: as §1

[3] = target: PI3Kα H1047R (Homo sapiens, UniProt P42336, H1047R); assay: PI3Kα H1047R enzyme assay (Transcreener ADP2 TR-FRET Red Assay); type: biochemical; conditions: purified recombinant full-length protein; 2 hours pre-incubation with compound
PI3Kα H1047R, sequence (P42336 whole entry H1047R): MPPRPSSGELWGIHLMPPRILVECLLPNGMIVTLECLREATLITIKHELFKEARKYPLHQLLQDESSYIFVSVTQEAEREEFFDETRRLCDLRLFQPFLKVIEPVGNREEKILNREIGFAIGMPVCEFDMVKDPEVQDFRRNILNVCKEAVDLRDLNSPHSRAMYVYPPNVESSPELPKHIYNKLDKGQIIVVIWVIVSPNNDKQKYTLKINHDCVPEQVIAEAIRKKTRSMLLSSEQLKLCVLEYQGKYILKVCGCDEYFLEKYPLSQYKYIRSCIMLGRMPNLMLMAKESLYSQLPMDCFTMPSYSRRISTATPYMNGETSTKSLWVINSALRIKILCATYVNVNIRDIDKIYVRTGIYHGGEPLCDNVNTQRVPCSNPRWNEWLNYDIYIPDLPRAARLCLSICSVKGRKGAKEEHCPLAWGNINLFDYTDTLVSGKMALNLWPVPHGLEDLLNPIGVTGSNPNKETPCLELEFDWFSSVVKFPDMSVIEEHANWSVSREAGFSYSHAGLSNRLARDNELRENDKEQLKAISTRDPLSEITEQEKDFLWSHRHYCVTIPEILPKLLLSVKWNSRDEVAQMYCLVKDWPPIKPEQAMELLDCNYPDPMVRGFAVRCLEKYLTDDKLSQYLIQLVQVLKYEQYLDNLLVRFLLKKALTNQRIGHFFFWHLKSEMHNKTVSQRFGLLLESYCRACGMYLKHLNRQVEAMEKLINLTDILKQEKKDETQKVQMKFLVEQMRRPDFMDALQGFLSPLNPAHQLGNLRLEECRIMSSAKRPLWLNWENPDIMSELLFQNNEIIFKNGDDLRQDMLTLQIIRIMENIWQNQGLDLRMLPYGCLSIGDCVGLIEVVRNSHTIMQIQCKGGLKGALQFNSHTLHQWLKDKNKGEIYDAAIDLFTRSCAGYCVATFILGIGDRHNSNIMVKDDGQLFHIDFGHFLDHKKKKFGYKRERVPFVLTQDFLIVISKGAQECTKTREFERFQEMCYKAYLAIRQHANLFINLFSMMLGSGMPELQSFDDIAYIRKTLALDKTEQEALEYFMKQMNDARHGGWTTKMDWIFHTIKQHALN
PI3Kα H1047R, sequence (P27986 2-724 partner): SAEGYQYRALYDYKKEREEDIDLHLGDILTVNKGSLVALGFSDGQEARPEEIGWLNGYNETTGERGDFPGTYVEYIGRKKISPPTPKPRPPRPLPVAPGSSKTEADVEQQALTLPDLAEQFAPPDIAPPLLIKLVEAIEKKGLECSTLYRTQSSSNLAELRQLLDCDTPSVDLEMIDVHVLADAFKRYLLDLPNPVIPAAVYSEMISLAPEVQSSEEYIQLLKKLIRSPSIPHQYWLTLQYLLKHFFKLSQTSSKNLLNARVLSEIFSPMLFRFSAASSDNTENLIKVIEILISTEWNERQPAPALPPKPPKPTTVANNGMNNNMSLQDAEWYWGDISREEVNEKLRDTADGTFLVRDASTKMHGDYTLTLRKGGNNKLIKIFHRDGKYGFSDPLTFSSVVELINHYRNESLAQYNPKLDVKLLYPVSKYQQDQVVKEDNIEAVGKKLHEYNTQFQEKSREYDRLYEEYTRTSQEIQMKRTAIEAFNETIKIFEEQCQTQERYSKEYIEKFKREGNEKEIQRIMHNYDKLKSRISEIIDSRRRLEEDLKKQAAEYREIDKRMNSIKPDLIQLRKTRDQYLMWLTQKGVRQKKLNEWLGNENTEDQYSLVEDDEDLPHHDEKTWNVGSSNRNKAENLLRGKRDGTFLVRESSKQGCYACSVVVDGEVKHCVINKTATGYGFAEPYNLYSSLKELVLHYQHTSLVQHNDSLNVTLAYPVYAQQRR
Description: (§2) Activity against PI3Kα and PI3Kα H1047R enzymes were determined in biochemical assays using purified recombinant full-length proteins with the Transcreener ADP^2 TR-FRET Red Assay from Bellbrook Labs. (Catalogue number 3011-10K). Test compounds were dissolved in DMSO and were tested in 11 point 1:3 serial dilutions, typical final concentration range from 50,000 nM to 0.85 nM. Enzymes were pre-incubated with compounds for 2 hours at room temperature prior to initiating the reactions. Assays were initiated with a 2×ATP/PI(4,5)P2 diC8 substrate mixture. After 60 minutes at room temperature, the reactions were quenched with detection reagent and incubated for an additional 60 minutes at room temperature. The plates were read using a multimode reader and the emission ratio of 665 nm to 615 nm was determined. This ratio was converted to percent of control (POC). [1-(high control-sample signal)/(high control-low control)]*100. Wells without compound were used to determine high control values and wells without enzyme were used to determine low control values. The POC values were fit using a four-parameter logistic model and the value where the fit curve was equal to 50 POC was reported as the IC50 using the Signals VitroVivo software package (PerkinElmer). Final assay conditions were: 40 mM HEPES pH 7.5, 20 mM NaCl, 25 mM MgCl2, 0.01% Triton X-100. The enzyme source, catalogue number, final enzyme concentration, and final ATP and PI(4,5)P2 diC8 concentration can be found in the table E10 below.

[4] = target: PI3Kα (Homo sapiens, UniProt P42336); assay: PI3Kα enzyme assay (Transcreener ADP2 TR-FRET Red Assay); type: biochemical; conditions: purified recombinant full-length protein; 2 hours pre-incubation with compound; read-out: PI3Kα WT IC50
PI3Kα, sequence (P42336 whole entry): as the sequence (P42336 whole entry H1047R) above, with R1047H counted along it
PI3Kα, sequence (P27986 2-724 partner): as the sequence (P27986 2-724 partner) above
Description: as §2

SMILES | IC50 [1] [µM] | IC50 [2] [µM] | IC50 [3] [µM] | IC50 [4] [µM]
C[C@@H](Nc1ccc(Cl)nc1C(=O)NS(C)(=O)=O)c1cc(F)cc2c(=O)n(C)c(N3Cc4cnn(C)c4C3)nc12 [Compound 28, (R)-6-chloro-3-((1-(6-fluoro-3-methyl-2-(1-methyl-4,6-dihydropyrrolo[3,4-c]pyrazol-5(1H)-yl)-4-oxo-3,4-dihydroquinazolin-8-yl)ethyl)amino)-N-(methylsulfonyl) picolinamide] | < 0.25 | 1 to 5 | 0.5 to 1 | ≥ 1
CC(=O)NS(=O)(=O)c1nc(Cl)ccc1N[C@H](C)c1cc(C)cc2c(=O)n(C)c(N3Cc4ccc(F)cc4C3)nc12 [Compound 74, (R)—N-((6-chloro-3-((1-(2-(5-fluoroisoindolin-2-yl)-3,6-dimethyl-4-oxo-3,4-dihydroquinazolin-8-yl)ethyl)amino)pyridin-2-yl)sulfonyl)acetamide] | 0.25 to 0.5 | ≥ 5 | 0.1 to 0.25 | ≥ 1
Cc1cc([C@@H](C)Nc2ccc(Cl)nc2C(=O)NS(C)(=O)=O)c2nc(N3C[C@H]4C[C@@H]3CO4)n(C)c(=O)c2c1 [Compound 26, 3-(((R)-1-(2-((1R,4R)-2-oxa-5-azabicyclo[2.2.1]heptan-5-yl)-3,6-dimethyl-4-oxo-3,4-dihydroquinazolin-8-yl)ethyl)amino)-6-chloro-N-(methylsulfonyl) picolinamide] | < 0.25 | 1 to 5 | 0.5 to 1 | ≥ 1
Cc1cc([C@@H](C)Nc2ccc(Cl)nc2C(=O)NS(C)(=O)=O)c2nc(-c3cncc(F)c3)n(C)c(=O)c2c1 [Compound 83, (R)-6-chloro-3-((1-(2-(5-fluoropyridin-3-yl)-3,6-dimethyl-4-oxo-3,4-dihydroquinazolin-8-yl)ethyl)amino)-N-(methylsulfonyl) picolinamide] | 0.25 to 0.5 | 1 to 5 | ≥ 1 | ≥ 1
CNC(=O)NS(=O)(=O)c1nc(Cl)ccc1N[C@H](C)c1cc(C)cc2c(=O)n(C)c(N3Cc4ccc(F)cc4C3)nc12 [Compound 70, (R)-6-chloro-3-((1-(2-(5-fluoro-isoindolin-2-yl)-3,6-dimethyl-4-oxo-3,4-dihydroquinazolin-8-yl)ethyl)amino)-N-(methylcarb-amoyl)pyridine-2-sulfonamide] | 1 to 5 | ≥ 5 | 0.25 to 0.5 | ≥ 1
Cc1cc([C@@H](C)Nc2ccc(Cl)nc2C(=O)NS(C)(=O)=O)c2nc(N3Cc4cn(CC(F)(F)F)nc4C3)n(C)c(=O)c2c1 [Compound 54, (R)-6-chloro-3-((1-(3,6-dimethyl-4-oxo-2-(2-(2,2,2-trifluoroethyl)-2,6-dihydropyrrolo[3,4-c]pyrazol-5(4H)-yl)-3,4-dihydroquinazolin-8-yl)ethyl)amino)-N-(methylsulfonyl) picolinamide] | < 0.25 | 1 to 5 | 0.1 to 0.25 | ≥ 1
Cc1cc([C@@H](C)Nc2ccc(Cl)nc2C(=O)NS(C)(=O)=O)c2nc(N(C)Cc3cnn(C)c3)n(C)c(=O)c2c1 [Compound 48, (R)-6-chloro-3-((1-(3,6-dimethyl-2-(methyl((1-methyl-1H-pyrazol-4-yl)methyl)amino)-4-oxo-3,4-dihydroquinazolin-8-yl)ethyl)amino)-N-(methylsulfonyl) picolinamide] | < 0.25 | 1 to 5 | 0.1 to 0.25 | ≥ 1
C[C@@H](Nc1ccc(Cl)nc1C(=O)NS(C)(=O)=O)c1cc(F)cc2c(=O)n(C)c(N3CC4CC4C3)nc12 (stereo partly drawn) [Compound 29, 3-(((1R)-1-(2-(3-azabicyclo[3.1.0]hexan-3-yl)-6-fluoro-3-methyl-4-oxo-3,4-dihydroquinazolin-8-yl)ethyl)amino)-6-chloro-N-(methylsulfonyl) picolinamide] | 0.25 to 0.5 | 1 to 5 | 0.25 to 0.5 | ≥ 1
Cc1cc([C@@H](C)Nc2ccc(F)cc2C(=O)NS(C)(=O)=O)c2nc(N3CCC(F)(F)CC3)n(C)c(=O)c2c1 [Compound 62, (R)-2-((1-(2-(4,4-difluoropiperidin-1-yl)-3,6-dimethyl-4-oxo-3,4-dihydroquinazolin-8-yl)ethyl)amino)-5-fluoro-N-(methyl-sulfonyl)benzamide] | 1 to 5 | 1 to 5 | < 0.1 | ≥ 1
Cc1cc([C@@H](C)Nc2ccc(Cl)nc2C(=O)NS(C)(=O)=O)c2nc(-c3ccc(C)nc3)n(C)c(=O)c2c1 [Compound 84, (R)-6-chloro-3-((1-(3,6-dimethyl-2-(6-methylpyridin-3-yl)-4-oxo-3,4-dihydroquinazolin-8-yl)ethyl)amino)-N-(methylsulfonyl) picolinamide] | 0.25 to 0.5 | 1 to 5 | ≥ 1 | ≥ 1
Cc1ccc(N[C@H](C)c2cc(F)cc3c(=O)n(C)c(N4Cc5ccc(F)cc5C4)nc23)c(C(=O)NS(C)(=O)=O)n1 [Compound 61, (R)-3-((1-(6-fluoro-2-(5-fluoroisoindolin-2-yl)-3-methyl-4-oxo-3,4-dihydro-quinazolin-8-yl)ethyl)amino)-6-methyl-N-(methylsulfonyl) picolinamide] | 1 to 5 | ≥ 5 | ≥ 1 | ≥ 1
Cc1cc([C@@H](C)Nc2ccc(Cl)nc2C(=O)NS(C)(=O)=O)c2nc(OC3CCC3)n(C)c(=O)c2c1 [Compound 52, (R)-6-chloro-3-((1-(2-cyclobutoxy-3,6-dimethyl-4-oxo-3,4-dihydroquinazolin-8-yl)ethyl)amino)-N-(methylsulfonyl) picolinamide] | 0.5 to 1 | 1 to 5 | 0.1 to 0.25 | ≥ 1

Further lines, results first:

IC50 [1] [µM] | IC50 [2] [µM] | IC50 [3] [µM] | IC50 [4] [µM] | SMILES
1 to 5 | ≥ 5 | ≥ 1 | ≥ 1 | C[C@@H](Nc1ccc[nH]c1=O)c1cc(F)cc2c(=O)n(C)c(N3Cc4cnn(C)c4C3)nc12 [Compound 98, (R)-6-fluoro-3-methyl-2-(1-methyl-4,6-dihydropyrrolo[3,4-c]pyrazol-5(1H)-yl)-8-(1-((2-oxo-1,2-dihydropyridin-3-yl)amino)ethyl)quinazolin-4(3H)-one]
< 0.25 | ≥ 5 | < 0.1 | ≥ 1 | C[C@@H](Nc1ccc(Cl)[nH]c1=O)c1cc(F)cc2c(=O)n(C)c(N3Cc4cnn(C)c4C3)nc12 [Compound 100, (R)-8-(1-((6-chloro-2-oxo-1,2-dihydropyridin-3-yl)amino)ethyl)-6-fluoro-3-methyl-2-(1-methyl-4,6-dihydropyrrolo[3,4-c]pyrazol-5(1H)-yl)quinazolin-4(3H)-one]
< 0.25 | 1 to 5 | 0.1 to 0.25 | 0.5 to 1 | Cc1cc([C@@H](C)Nc2ccc(Cl)nc2C(=O)NS(C)(=O)=O)c2nc(-c3cnc(C)s3)n(C)c(=O)c2c1 [Compound 89, (R)-6-chloro-3-((1-(3,6-dimethyl-2-(2-methylthiazol-5-yl)-4-oxo-3,4-dihydroquinazolin-8-yl)ethyl)amino)-N-(methylsulfonyl) picolinamide]
< 0.25 | 1 to 5 | 0.25 to 0.5 | ≥ 1 | Cc1cc([C@@H](C)Nc2ccc(Cl)nc2C(=O)NS(C)(=O)=O)c2nc(-c3cnc(C)c(F)c3)n(C)c(=O)c2c1 [Compound 91, (R)-6-chloro-3-((1-(2-(5-fluoro-6-methylpyridin-3-yl)-3,6-dimethyl-4-oxo-3,4-dihydroquinazolin-8-yl)ethyl)amino)-N-(methylsulfonyl) picolinamide]
1 to 5 | ≥ 5 | ≥ 1 | ≥ 1 | Cc1cc([C@H](C)Nc2cn(C)nc2C(=O)NS(C)(=O)=O)c2nc(N3Cc4ccc(F)cc4C3)n(C)c(=O)c2c1 (single isomer, unassigned) [Compound 107, 4-((1-(2-(5-fluoroisoindolin-2-yl)-3,6-dimethyl-4-oxo-3,4-dihydroquinazolin-8-yl)ethyl)amino)-1-methyl-N-(methylsulfonyl)-1H-pyrazole-3-carboxamide]
1 to 5 | 1 to 5 | ≥ 1 | ≥ 1 | Cc1cc([C@@H](C)Nc2ccn[nH]c2=O)c2nc(N3Cc4ccc(F)cc4C3)n(C)c(=O)c2c1 [Compound 95, (R)-2-(5-fluoroisoindolin-2-yl)-3,6-dimethyl-8-(1-((3-oxo-2,3-dihydropyridazin-4-yl)amino)ethyl)quinazolin-4(3H)-one]
